Results: patent US8835644B2, “Broad spectrum benzothiophene-nitrothiazolide and other antimicrobials” (University of Virginia Patent Foundation, priority 2009, dated 2014)
≈ marks a conversion by molar mass, not a printed value. Read-outs that look alike come from different tables or passages of the source.

Legend:
[1] = tested on: H. pylori; assay: MIC testing by broth dilution, H. pylori; type: cell-based, Helicobacter pylori
Description: (§1) A standard broth dilution protocol was used in 96 well microplates containing a standard dilution of the microorganism to be tested in 100 microliters of the appropriate medium. Appropriate medium: E. coli, LB medium; Staphylococcus strains, Trypticase Soy; and for H. pylori and C. jejuni, Brain Heart Infusion. The compounds to be tested were set at 32 μg/ml in 200 microliters in well one and then serially diluted to provide a range from 32 to 0.06. The wells were scored visually at 24 h. The well where there was no growth was recorded as the MIC. Clostridium difficile was tested by agar diffusion and disk diffusion (Kirby Bower) methods under anaerobic conditions on Wilkins Chalgrin agar. In these assays, zone of inhibited growth was measured and compared by relative ratio to the zone recorded for NTZ.
(§2) Representative compounds of the invention were tested in a series of assays against a series of organisms as described above. […] The organisms tested include, C. difficile, H. pylori, C. jejuni, MRSA, S. epidermidis, and E. coli. S. epidermidis and E. coli were tested in the plank and biofilm assay. A disk diffusion assay was also used for C. difficile. Direct PFOR enzyme assays were also performed. All analogues and derivatives were not tested on every organism in every type of assay (the “-” in each table means that it was not tested).

[2] = tested on: C. jejuni; assay: MIC testing by broth dilution, C. jejuni; type: cell-based, Campylobacter jejuni
Description: as §1, §2

[3] = tested on: MRSA; assay: MIC testing by broth dilution, MRSA; type: cell-based, Staphylococcus aureus
Description: as §1, §2

[4] = tested on: S. epidermidis; assay: MIC testing by broth dilution, S. epidermidis plank; type: cell-based, Staphylococcus epidermidis
Description: as §1, §2

[5] = tested on: E. coli; assay: MIC testing by broth dilution, E. coli plank; type: cell-based, Escherichia coli
Description: as §1, §2

[6] = tested on: C. difficile; assay: Disk diffusion (Kirby Bower), C. difficile; type: cell-based, Clostridium difficile; details: for Disk Diff (%) C. difficile: Nitazoxanide = 100; for Disk Diffusion (%) C. difficile: zone of inhibited growth as relative ratio to the zone for NTZ
Description: as §1, §2

[7] = tested on: E. coli biofilm; assay: E. coli biofilm assay (activity tables); type: cell-based, Escherichia coli; details: biofilm; read-out: MIC (μM) E. coli Biofilm
Description: A quantitative biofilm assay was used to determine the effect of NTZ on biofilm formation (41). Strain 042 was grown overnight at 37° C. with shaking and inoculated 1:100 in 200 μl culture medium in Costar 96-well, flat-bottom, polystyrene microtiter plates containing appropriate concentrations of NTZ. Plates were incubated statically at 37° C. in a humidified incubator. At 24 h, bacterial growth was measured by either transferring […] aliquots to another microtiter plate to determine turbidity or by diluting 100 μl aliquots 1:100 in 9.9 ml PBS for quantitative plate counts on LB medium. Bacterial counts in triplicate are reported as cfu/ml. Biofilm was visualized following staining with 0.5% crystal violet (41) and the absorbance was read at 570 nm using a microplate reader (Molecular Dynamics). All experiments were in triplicate and reported as mean and standard deviation.
as §1, §2

[8] = broth dilution, Brain Heart Infusion, 24 h, read-out: MIC (μM) H. pylori
[9] = broth dilution, Brain Heart Infusion, 24 h, read-out: MIC (μM) C. jejuni
[10] = broth dilution, Trypticase Soy, 24 h, read-out: MIC (μM) MRSA
[11] = broth dilution, Trypticase Soy, 24 h, read-out: MIC (μM) S. epidermidis Plank
[12] = broth dilution, LB medium, 24 h, read-out: MIC (μM) E. coli Plank
[13] = Helicobacter pylori, 24 h, read-out: MIC (μM) H. pylori
[14] = Campylobacter jejuni, 24 h, read-out: MIC (μM) C. jejuni
[15] = Staphylococcus aureus, MRSA, 24 h, read-out: MIC (μM) MRSA
[16] = Staphylococcus epidermidis, 24 h, read-out: MIC (μM) S. epidermidis Plank
[17] = Escherichia coli, 24 h, read-out: MIC (μM) E. coli Plank
[18] = Helicobacter pylori, broth dilution, Brain Heart Infusion, 24 h, read-out: MIC (μM) H. pylori
[19] = Campylobacter jejuni, broth dilution, Brain Heart Infusion, 24 h, read-out: MIC (μM) C. jejuni
[20] = Staphylococcus aureus, MRSA, broth dilution, Trypticase Soy, 24 h, read-out: MIC (μM) MRSA
[21] = Staphylococcus epidermidis, broth dilution, Trypticase Soy, 24 h, read-out: MIC (μM) S. epidermidis Plank
[22] = Escherichia coli, broth dilution, LB medium, 24 h, read-out: MIC (μM) E. coli Plank

| Compound | MIC [1, 8] [µM] | MIC [2, 9] [µM] | MIC [3, 10] [µM] | MIC [4, 11] [µM] | MIC [5, 12] [µM] | Disk Diffusion (%) C. difficile [6] [%] | further results |
| --- | --- | --- | --- | --- | --- | --- | --- |
| O=C(Nc1ncc([N+](=O)[O-])s1)c1cc2cc([N+](=O)[O-])ccc2o1 [VPC16a1019] |  |  |  |  |  |  | MIC ([1]; Furan analogues table, read-out: MIC H. pylori): 4.5 µM (≈ 1.5 µg/mL); MIC ([2]; Furan analogues table, read-out: MIC C. jejuni): 4.5 µM (≈ 1.5 µg/mL); MIC ([3]; Furan analogues table, read-out: MIC MRSA): 47.9 µM (≈ 16 µg/mL); MIC ([4]; planktonic, Furan analogues table, read-out: MIC S. epidermidis Plank): 23.9 µM (≈ 7.99 µg/mL); MIC ([5]; planktonic, Furan analogues table, read-out: MIC E. coli Plank): 95.7 µM (≈ 32 µg/mL); Disk Diff (%) C. difficile ([6]; Furan analogues table): 77% |
| O=C(Nc1ncc([N+](=O)[O-])s1)c1cccc(OC(F)(F)F)c1 [VPC16a1041] | 1.1 (≈ 0.367 µg/mL) | 9.0 (≈ 3 µg/mL) | 6.0 (≈ 2 µg/mL) | 12.0 (≈ 4 µg/mL) | 96.0 (≈ 32 µg/mL) | 90 |  |
| O=C(Nc1ncc([N+](=O)[O-])s1)c1ccc(C(F)(F)F)cc1[N+](=O)[O-] [VPC16b1016] | 8.3 (≈ 3.01 µg/mL) | 88.3 (≈ 32 µg/mL) | 88.3 (≈ 32 µg/mL) | 88.3 (≈ 32 µg/mL) | 88.3 (≈ 32 µg/mL) |  | MIC [7]: 88.3 µM (≈ 32 µg/mL) |
| O=C(Nc1ncc([N+](=O)[O-])s1)c1ccc(F)c([N+](=O)[O-])c1 [VPC16b1017] | 1.6 (≈ 0.5 µg/mL) | 51.2 (≈ 16 µg/mL) | 76.9 (≈ 24 µg/mL) | 51.2 (≈ 16 µg/mL) | 102.5 (≈ 32 µg/mL) |  | MIC [7]: 102.5 µM (≈ 32 µg/mL) |
| O=C(Nc1ncc([N+](=O)[O-])s1)c1cc2ccccc2[nH]1 [VPC16b1031, N-(5-Nitrothiazol-2-yl)-1H-indole-2-carboxamide] |  |  |  |  |  | 75 | MIC [1, 13]: 6.9 µM (≈ 1.99 µg/mL); MIC [2, 14]: 13.9 µM (≈ 4.01 µg/mL); MIC [3, 15]: 27.8 µM (≈ 8.01 µg/mL); MIC [4, 16]: 13.9 µM (≈ 4.01 µg/mL); MIC [5, 17]: 111 µM (≈ 32 µg/mL) |
| NCCOc1ccccc1C(=O)Nc1ncc([N+](=O)[O-])s1.O=C(O)C(F)(F)F [VPC161219TFA] | 1.88 | 14.2 | 75.8 | 75.8 | 75.8 | 81 |  |
| O=C(Nc1ccccc1)c1ncc([N+](=O)[O-])s1 [VPC161232] |  |  |  |  |  | 0 | MIC [1, 18]: 6 µM (≈ 1.5 µg/mL); MIC [2, 19]: 8 µM (≈ 1.99 µg/mL); MIC [3, 20]: 32.1 µM (≈ 8 µg/mL); MIC [4, 21]: 16 µM (≈ 3.99 µg/mL); MIC [5, 22]: 128 µM (≈ 32 µg/mL) |
| CC(C)(C)OC(=O)COc1ccccc1C(=O)Nc1ncc([N+](=O)[O-])s1 [VPC162035, tert-butyl 2-(2-(5-nitrothiazol-2-ylcarbamoyl)phenoxy)acetate] |  |  |  |  |  | 0 | MIC [1, 18]: 1 µM (≈ 0.379 µg/mL); MIC [2, 19]: 84.4 µM (≈ 32 µg/mL); MIC [3, 20]: 84.3 µM (≈ 32 µg/mL); MIC [4, 21]: 84.3 µM (≈ 32 µg/mL); MIC [5, 22]: 84.3 µM (≈ 32 µg/mL) |
| O=C(Nc1ncc([N+](=O)[O-])s1)c1cc2ccc(F)cc2s1 [VPC162037] |  |  |  |  |  |  | MIC ([1]; Thiophene analogues table, read-out: MIC H. pylori): 3.1 µM (≈ 1 µg/mL); MIC ([2]; Thiophene analogues table, read-out: MIC C. jejuni): 6.2 µM (≈ 2 µg/mL); MIC ([3]; Thiophene analogues table, read-out: MIC MRSA): 61.9 µM (≈ 20 µg/mL); MIC ([4]; planktonic, Thiophene analogues table, read-out: MIC S. epidermidis Plank): 49.5 µM (≈ 16 µg/mL); MIC ([5]; planktonic, Thiophene analogues table, read-out: MIC E. coli Plank): 99.0 µM (≈ 32 µg/mL); Disk Diff (%) C. difficile ([6]; Thiophene analogues table): 70% |
| O=C(O)COc1ccccc1C(=O)Nc1ncc([N+](=O)[O-])s1 [VPC162042, 2-(2-(5-nitrothiazol-2-ylcarbamoyl)phenoxy)acetic acid] |  |  |  |  |  |  | MIC [1, 13]: 49.5 µM (≈ 16 µg/mL); MIC [2, 14]: 99 µM (≈ 32 µg/mL); MIC [3, 15]: 99 µM (≈ 32 µg/mL); MIC [4, 16]: 99 µM (≈ 32 µg/mL); MIC [5, 17]: 99 µM (≈ 32 µg/mL) |
| O=C(O)COc1ccc(C(=O)Nc2ncc([N+](=O)[O-])s2)cc1 [VPC162043] | 99.0 (≈ 32 µg/mL) | 99.0 (≈ 32 µg/mL) | 99.0 (≈ 32 µg/mL) | 99.0 (≈ 32 µg/mL) | 99.0 (≈ 32 µg/mL) |  |  |
| CC(=O)NCCOc1ccccc1C(=O)Nc1ncc([N+](=O)[O-])s1 [VPC162044] | 1.1 (≈ 0.385 µg/mL) | 34.3 (≈ 12 µg/mL) | 91.3 (≈ 32 µg/mL) | 22.8 (≈ 7.99 µg/mL) | 91.3 (≈ 32 µg/mL) | 77 |  |
| CS(=O)(=O)NCCOc1ccccc1C(=O)Nc1ncc([N+](=O)[O-])s1 [VPC162045] | 0.6 (≈ 0.232 µg/mL) | 51.8 (≈ 20 µg/mL) | 82.8 (≈ 32 µg/mL) | 62.1 (≈ 24 µg/mL) | 82.8 (≈ 32 µg/mL) | 51 |  |
